Tests used:
[1] = test system: Plasmodium falciparum; experiment: Antiplasmodial activity against choloroquine-sensitive ring stage of Plasmodium falciparum 3D7 assessed as inhibition of parasite growth measured after 72 hrs by DAPI staining based analysis; format: functional, organism-based; settings: 3D7, 72 h
[2] = Cytotoxicity against human HEK293 cells assessed as inhibition of cell viability at 80 uM measured after 66 hrs by Alamar Blue dye based fluorescence analysis; format: toxicity; settings: read-out: INH
[3] = Cytotoxicity against human HEK293 cells assessed as inhibition of cell viability measured after 66 hrs by Alamar Blue dye based fluorescence analysis; format: toxicity
[4] = test system: Plasmodium falciparum; experiment: Antiplasmodial activity against choloroquine-sensitive ring stage of Plasmodium falciparum 3D7 assessed as inhibition of parasite growth at 40 uM measured after 72 hrs by DAPI staining based analysis; format: functional

Row | Structure (SMILES) | IC50 [1] | cytotoxicity at 66 h, 80 µM [2] | IC50 at 66 h [3] | inhibition at 40 µM [4]
1 | CC(C)=CCCc1cnc2c(C)cc(OCc3cccc(Cl)c3)c3c2c1CC[C@H]3C | 11 µM | 65% |  | 
2 | CC(C)=CCCc1cnc2c(C)cc(OC3CCCC3)c3c2c1CC[C@H]3C | 12.5 µM | 83% |  | 
3 | CC(C)=CCCc1cnc2c(C)cc(OCc3ccccc3)c3c2c1CC[C@H]3C | 7.6 µM |  | 30.8 µM | 
4 | CC(C)=CCCc1cnc2c(C)cc(OCc3ccc(Br)cc3)c3c2c1CC[C@H]3C | 9.7 µM |  | 40.7 µM | 
5 | CC(C)=CCCc1cnc2c(C)cc(OCc3cccc([N+](=O)[O-])c3)c3c2c1CC[C@H]3C | 13.1 µM | 7% |  | 
6 | CC(C)=CCCc1cnc2c(C)cc(OCc3ccccc3-c3ccccc3)c3c2c1CC[C@H]3C | 8 µM | 94% |  | 
7 | CC(C)=CCCc1cnc2c(C)cc(O)c3c2c1[C@H](O)C[C@H]3C |  | 14% |  | 78%
8 | CC(C)=CCCc1cnc2c(C)cc(OC3CCCCC3)c3c2c1CC[C@H]3C |  | 23% |  | 93%
9 | CC(C)=CCCc1cnc2c(C)cc(OCc3cccc(Br)c3)c3c2c1CC[C@H]3C | 7.2 µM |  | 39.3 µM | 
10 | CC(C)=CCCc1cnc2c(C)cc(OCc3cc(F)ccc3F)c3c2c1CC[C@H]3C | 8 µM |  | 31.4 µM | 
11 | C=CCOc1cc(C)c2ncc(CCC=C(C)C)c3c2c1[C@H](C)CC3 | 13.1 µM | 85% |  | 
12 | CC(C)=CCCc1cnc2c(C)cc(O)c3c2c1CC[C@H]3C | 8.9 µM | 92% |  | 
13 | C[C@H]1[C@@H](O)O[C@@H]2O[C@@]3(C)CC[C@H]4[C@H](C)CC[C@@H]1[C@@]24OO3 [ARTENIMOL] | 0.021 µM |  |  | 
14 | COc1ccc(C[C@H](N)C(=O)N[C@H]2[C@@H](O)[C@H](n3cnc4c(N(C)C)ncnc43)O[C@@H]2CO)cc1 [PUROMYCIN] | 0.033 µM |  | 0.49 µM | 

— ChEMBL document CHEMBL5385927, “Chemical and Antiplasmodial Investigations on Eremophila-Derived Alkaloids and Semisynthetic Ether Analogues” (J Nat Prod, 2024)
